The text below walks through data of ChEMBL document CHEMBL3046002, “Synthesis and antimicrobial activity of coumarin pyrazole pyrimidine 2,4,6(1H,3H,5H)triones and thioxopyrimidine4,6(1H,5H)diones” (2013).

≈ marks a conversion by molar mass, not a printed value. Calls of active or inactive are those of the source. No cut-off for these calls is given here.

The MIC is the lowest concentration that inhibits growth of the organism.

In one experiment the test system is Aspergillus niger. As to the kind of experiment: Antimicrobial activity against Aspergillus niger assessed as growth inhibition zone after 48 hr by agar cup bioassay. It counts as functional, organism-based.
For the molecule `O=C1NC(=O)C(=Cc2cn(-c3ccccc3)nc2-c2cc3cc(Cl)ccc3oc2=O)C(=O)N1`, the “growth inhibition (GI)” value was “inactive”.
Still for that read-out and setting: next, `O=C1NC(=S)NC(=O)C1=Cc1cn(-c2ccccc2)nc1-c1cc2cc(Br)c(Br)cc2oc1=O`: “inactive”; `O=C1NC(=S)NC(=O)C1=Cc1cn(-c2ccccc2)nc1-c1cc2cc3ccccc3cc2oc1=O`: “inactive”; `O=C1NC(=O)C(=Cc2cn(-c3ccccc3)nc2-c2cc3ccccc3oc2=O)C(=O)N1`: “inactive”.
Same read-out and setting: next, `O=C1NC(=O)C(=Cc2cn(-c3ccccc3)nc2-c2cc3cc(Cl)c(Cl)cc3oc2=O)C(=O)N1`: “inactive”; `O=C1NC(=S)NC(=O)C1=Cc1cn(-c2ccccc2)nc1-c1cc2cc(Br)ccc2oc1=O`: “inactive”; `O=C1NC(=S)NC(=O)C1=Cc1cn(-c2ccccc2)nc1-c1cc2ccccc2oc1=O`: “inactive”.

The next experiment deals with Klebsiella pneumoniae. The experiment is described as follows: Antimicrobial activity against Klebsiella pneumoniae assessed as growth inhibition after 24 hr by broth dilution method. It counts as functional.
For the molecule `O=C1NC(=O)C(=Cc2cn(-c3ccccc3)nc2-c2cc3cc(Cl)ccc3oc2=O)C(=O)N1`, the minimum inhibitory concentration (MIC) came out at 150 µg/mL (≈ 325 µM).
For the molecule `O=C1NC(=S)NC(=O)C1=Cc1cn(-c2ccccc2)nc1-c1cc2cc(Br)c(Br)cc2oc1=O`, the MIC was determined as 150 µg/mL (≈ 250 µM).
Still for that read-out and setting: with `O=C1NC(=S)NC(=O)C1=Cc1cn(-c2ccccc2)nc1-c1cc2cc3ccccc3cc2oc1=O` the figure was 150 µg/mL (≈ 305 µM); with `O=C1NC(=O)C(=Cc2cn(-c3ccccc3)nc2-c2cc3ccccc3oc2=O)C(=O)N1`, 150 µg/mL (≈ 352 µM).
Turning to `O=C1NC(=O)C(=Cc2cn(-c3ccccc3)nc2-c2cc3cc(Cl)c(Cl)cc3oc2=O)C(=O)N1`, the minimal inhibitory concentration (MIC) is 150 µg/mL (≈ 303 µM).
Still for that read-out and setting: next, `O=C1NC(=S)NC(=O)C1=Cc1cn(-c2ccccc2)nc1-c1cc2cc(Br)ccc2oc1=O`: 150 µg/mL (≈ 288 µM); `O=C1NC(=S)NC(=O)C1=Cc1cn(-c2ccccc2)nc1-c1cc2ccccc2oc1=O`: 150 µg/mL (≈ 339 µM).

A further experiment relates to Pseudomonas aeruginosa. As to the kind of experiment: Antimicrobial activity against Pseudomonas aeruginosa assessed as growth inhibition after 24 hr by broth dilution method. It counts as functional.
For `O=C1NC(=O)C(=Cc2cn(-c3ccccc3)nc2-c2cc3cc(Cl)ccc3oc2=O)C(=O)N1`, the MIC was 150 µg/mL (≈ 325 µM).
For `O=C1NC(=S)NC(=O)C1=Cc1cn(-c2ccccc2)nc1-c1cc2cc(Br)c(Br)cc2oc1=O`, the MIC worked out at 150 µg/mL (≈ 250 µM).
Turning to `O=C1NC(=S)NC(=O)C1=Cc1cn(-c2ccccc2)nc1-c1cc2cc3ccccc3cc2oc1=O`, the minimal inhibitory concentration (MIC) is 150 µg/mL (≈ 305 µM).
As to `O=C1NC(=O)C(=Cc2cn(-c3ccccc3)nc2-c2cc3ccccc3oc2=O)C(=O)N1`, the MIC amounted to 150 µg/mL (≈ 352 µM).
Still for that read-out and setting: with `O=C1NC(=O)C(=Cc2cn(-c3ccccc3)nc2-c2cc3cc(Cl)c(Cl)cc3oc2=O)C(=O)N1` the figure was 150 µg/mL (≈ 303 µM); with `O=C1NC(=S)NC(=O)C1=Cc1cn(-c2ccccc2)nc1-c1cc2cc(Br)ccc2oc1=O`, 300 µg/mL (≈ 575 µM).
Same read-out and setting: next, `O=C1NC(=S)NC(=O)C1=Cc1cn(-c2ccccc2)nc1-c1cc2ccccc2oc1=O`: 300 µg/mL (≈ 678 µM).

In a further experiment the test system is Escherichia coli. As to the kind of experiment: Antimicrobial activity against Escherichia coli assessed as growth inhibition after 24 hr by broth dilution method. The experiment is classed as functional.
Consider `O=C1NC(=O)C(=Cc2cn(-c3ccccc3)nc2-c2cc3cc(Cl)ccc3oc2=O)C(=O)N1`, for which the MIC amounted to 150 µg/mL (≈ 325 µM).
Same read-out and setting: next, `O=C1NC(=S)NC(=O)C1=Cc1cn(-c2ccccc2)nc1-c1cc2cc(Br)c(Br)cc2oc1=O`: 150 µg/mL (≈ 250 µM); `O=C1NC(=S)NC(=O)C1=Cc1cn(-c2ccccc2)nc1-c1cc2cc3ccccc3cc2oc1=O`: 600 µg/mL (≈ 1220 µM).
The same measure, in the same setting: next, `O=C1NC(=O)C(=Cc2cn(-c3ccccc3)nc2-c2cc3ccccc3oc2=O)C(=O)N1`: 300 µg/mL (≈ 704 µM); `O=C1NC(=O)C(=Cc2cn(-c3ccccc3)nc2-c2cc3cc(Cl)c(Cl)cc3oc2=O)C(=O)N1`: 300 µg/mL (≈ 606 µM); `O=C1NC(=S)NC(=O)C1=Cc1cn(-c2ccccc2)nc1-c1cc2cc(Br)ccc2oc1=O`: 300 µg/mL (≈ 575 µM).
As for `O=C1NC(=S)NC(=O)C1=Cc1cn(-c2ccccc2)nc1-c1cc2ccccc2oc1=O`, the MIC amounted to 600 µg/mL (≈ 1360 µM).

The test system of a further experiment is Staphylococcus epidermidis. As to the kind of experiment: Antimicrobial activity against Staphylococcus epidermidis assessed as growth inhibition after 24 hr by broth dilution method. It counts as functional.
On to `O=C1NC(=O)C(=Cc2cn(-c3ccccc3)nc2-c2cc3cc(Cl)ccc3oc2=O)C(=O)N1`, for which the MIC worked out at 150 µg/mL (≈ 325 µM).
Same read-out and setting: next, `O=C1NC(=S)NC(=O)C1=Cc1cn(-c2ccccc2)nc1-c1cc2cc(Br)c(Br)cc2oc1=O`: 300 µg/mL (≈ 500 µM); `O=C1NC(=S)NC(=O)C1=Cc1cn(-c2ccccc2)nc1-c1cc2cc3ccccc3cc2oc1=O`: 300 µg/mL (≈ 609 µM).
On the same count and under the same terms, with `O=C1NC(=O)C(=Cc2cn(-c3ccccc3)nc2-c2cc3ccccc3oc2=O)C(=O)N1` the figure was 300 µg/mL (≈ 704 µM); with `O=C1NC(=O)C(=Cc2cn(-c3ccccc3)nc2-c2cc3cc(Cl)c(Cl)cc3oc2=O)C(=O)N1`, 300 µg/mL (≈ 606 µM); with `O=C1NC(=S)NC(=O)C1=Cc1cn(-c2ccccc2)nc1-c1cc2cc(Br)ccc2oc1=O`, 300 µg/mL (≈ 575 µM).
In the case of `O=C1NC(=S)NC(=O)C1=Cc1cn(-c2ccccc2)nc1-c1cc2ccccc2oc1=O`, the minimal inhibitory concentration (MIC) is 150 µg/mL (≈ 339 µM).

The next experiment relates to Staphylococcus aureus. The experiment is described as follows: Antimicrobial activity against Staphylococcus aureus assessed as growth inhibition after 24 hr by broth dilution method. The experiment is classed as functional. Background: In broth dilution the organism is exposed to a series of concentrations in liquid medium.
On to `O=C1NC(=O)C(=Cc2cn(-c3ccccc3)nc2-c2cc3cc(Cl)ccc3oc2=O)C(=O)N1`, for which the MIC came out at 150 µg/mL (≈ 325 µM).
As to `O=C1NC(=S)NC(=O)C1=Cc1cn(-c2ccccc2)nc1-c1cc2cc(Br)c(Br)cc2oc1=O`, the minimum inhibitory concentration (MIC) was determined as 150 µg/mL (≈ 250 µM).
As for `O=C1NC(=S)NC(=O)C1=Cc1cn(-c2ccccc2)nc1-c1cc2cc3ccccc3cc2oc1=O`, the MIC turned out to be 150 µg/mL (≈ 305 µM).
`O=C1NC(=O)C(=Cc2cn(-c3ccccc3)nc2-c2cc3ccccc3oc2=O)C(=O)N1`: the MIC worked out at 300 µg/mL (≈ 704 µM).
Still for that read-out and setting: with `O=C1NC(=O)C(=Cc2cn(-c3ccccc3)nc2-c2cc3cc(Cl)c(Cl)cc3oc2=O)C(=O)N1` the figure was 300 µg/mL (≈ 606 µM); with `O=C1NC(=S)NC(=O)C1=Cc1cn(-c2ccccc2)nc1-c1cc2cc(Br)ccc2oc1=O`, 600 µg/mL (≈ 1150 µM); with `O=C1NC(=S)NC(=O)C1=Cc1cn(-c2ccccc2)nc1-c1cc2ccccc2oc1=O`, 150 µg/mL (≈ 339 µM).

For a further experiment, the system named is Bacillus subtilis. As to the kind of experiment: Antimicrobial activity against Bacillus subtilis assessed as growth inhibition after 24 hr by broth dilution method. It counts as functional.
As to `O=C1NC(=O)C(=Cc2cn(-c3ccccc3)nc2-c2cc3cc(Cl)ccc3oc2=O)C(=O)N1`, the MIC was determined as 150 µg/mL (≈ 325 µM).
Regarding `O=C1NC(=S)NC(=O)C1=Cc1cn(-c2ccccc2)nc1-c1cc2cc(Br)c(Br)cc2oc1=O`, the MIC amounted to 150 µg/mL (≈ 250 µM).
As for `O=C1NC(=S)NC(=O)C1=Cc1cn(-c2ccccc2)nc1-c1cc2cc3ccccc3cc2oc1=O`, the minimal inhibitory concentration (MIC) stood at 300 µg/mL (≈ 609 µM).
Same read-out and setting: with `O=C1NC(=O)C(=Cc2cn(-c3ccccc3)nc2-c2cc3ccccc3oc2=O)C(=O)N1` the figure was 300 µg/mL (≈ 704 µM); with `O=C1NC(=O)C(=Cc2cn(-c3ccccc3)nc2-c2cc3cc(Cl)c(Cl)cc3oc2=O)C(=O)N1`, 300 µg/mL (≈ 606 µM); with `O=C1NC(=S)NC(=O)C1=Cc1cn(-c2ccccc2)nc1-c1cc2cc(Br)ccc2oc1=O`, 600 µg/mL (≈ 1150 µM).
Still for that read-out and setting: next, `O=C1NC(=S)NC(=O)C1=Cc1cn(-c2ccccc2)nc1-c1cc2ccccc2oc1=O`: 300 µg/mL (≈ 678 µM).
